Assay results: ChEMBL document CHEMBL1201862, “PubChem BioAssay data set” (2004)
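Method: 48-hour compound exposure of cells in 96-well plates, five concentrations, linear interpolation of endpoints. GI50 is the concentration that inhibits growth by half.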 Active and inactive are the calls of the source. Rule as the data show it: active = GI50 up to about 1.1 µM and inactive = higher.

Legend:
Test in all cases: growth of human tumour cells (NCI), 48 h
Hs-578T = tested on: Hs-578T
HT-29 = tested on: HT-29
CAKI-1 = tested on: CAKI-1
TK-10 = tested on: TK-10
MCF7 = tested on: MCF7
UO-31 = tested on: UO-31
SR = tested on: SR
RPMI-8226 = tested on: RPMI-8226
SN12C = tested on: SN12C
SF-268 = tested on: SF-268
T47D = tested on: T47D
NCI-H226 = tested on: NCI-H226
SF-295 = tested on: SF-295
EKVX = tested on: EKVX
CCRF-CEM = tested on: CCRF-CEM
HCC 2998 = tested on: HCC 2998
LOX IMVI = tested on: LOX IMVI
UACC-62 = tested on: UACC-62
OVCAR-4 = tested on: OVCAR-4
HL-60 = tested on: HL-60

SMILES	GI50 (Hs-578T)	GI50 (HT-29)	GI50 (CAKI-1)	GI50 (TK-10)	GI50 (MCF7)	GI50 (UO-31)	GI50 (SR)	GI50 (RPMI-8226)	GI50 (SN12C)	GI50 (SF-268)	GI50 (T47D)	GI50 (NCI-H226)	GI50 (SF-295)	GI50 (EKVX)	GI50 (CCRF-CEM)	GI50 (HCC 2998)	GI50 (LOX IMVI)	GI50 (UACC-62)	GI50 (OVCAR-4)	GI50 (HL-60)
CN1C(=O)C(=CNc2ccccc2[N+](=O)[O-])C(=O)N(C)C1=O	> 100 µM (inactive)	> 100 µM (inactive)	> 100 µM (inactive)	> 100 µM (inactive)	10 µM (inactive)	> 100 µM (inactive)	> 100 µM (inactive)	> 100 µM (inactive)	> 100 µM (inactive)	> 100 µM (inactive)	> 100 µM (inactive)	> 100 µM (inactive)	> 100 µM (inactive)	> 100 µM (inactive)	> 100 µM (inactive)	> 100 µM (inactive)	> 100 µM (inactive)	> 100 µM (inactive)	> 100 µM (inactive)	
Nc1cc(OCc2ccccc2)c(OCc2ccccc2)cc1C=O	42.4 µM (inactive)	22.9 µM (inactive)		15.3 µM (inactive)	36.7 µM (inactive)		26.6 µM (inactive)	27 µM (inactive)	28.1 µM (inactive)	65.2 µM (inactive)	21.1 µM (inactive)	44 µM (inactive)	31.4 µM (inactive)	24.4 µM (inactive)	22.3 µM (inactive)	8.57 µM (inactive)	26.2 µM (inactive)			15.2 µM (inactive)
CCCCCCCCCCCCCC(=O)OCC(CCS(=O)(=O)O[C@H]1CC[C@@]2(C)C(=CC[C@@H]3C2CC[C@]2(C)C(=O)CCC32)C1)OC(=O)CCCCCCCCCCCCC (stereo partly drawn)	> 100 µM (inactive)	> 100 µM (inactive)	> 100 µM (inactive)	> 100 µM (inactive)	> 100 µM (inactive)	> 100 µM (inactive)	> 100 µM (inactive)	> 100 µM (inactive)	> 100 µM (inactive)	> 100 µM (inactive)	> 100 µM (inactive)		> 100 µM (inactive)	> 100 µM (inactive)	> 100 µM (inactive)	> 100 µM (inactive)	> 100 µM (inactive)	> 100 µM (inactive)	> 100 µM (inactive)	> 100 µM (inactive)
CCCCCCCCCCC(O)C1CCC(C(O)CCC(O)C2CCC(CCCCCCC[C@H](O)CC3=C[C@@H](C)OC3=O)O2)O1 (stereo partly drawn)	> 10 µM (inactive)	> 100 µM (inactive)	> 70.8 µM (inactive)	30.3 µM (inactive)	2 µM (inactive)	2.25 µM (inactive)	0.01 µM (active)	0.855 µM (active)	> 48.9 µM (inactive)	9.23 µM (inactive)	> 10 µM (inactive)	2.64 µM (inactive)	0.01 µM (active)	34.8 µM (inactive)	3.48 µM (inactive)	97.5 µM (inactive)	14.6 µM (inactive)	4.02 µM (inactive)		0.01 µM (active)
Brc1ccc(C2CC3(c4ccccc4)ON=C(c4ccccc4)N3c3ccccc3S2)cc1 (stereo not drawn)	> 100 µM (inactive)	9.16 µM (inactive)		> 100 µM (inactive)	> 100 µM (inactive)	> 100 µM (inactive)	28.1 µM (inactive)		> 100 µM (inactive)	> 100 µM (inactive)	> 100 µM (inactive)	> 100 µM (inactive)	> 100 µM (inactive)	> 100 µM (inactive)	> 100 µM (inactive)	> 100 µM (inactive)	> 100 µM (inactive)	> 100 µM (inactive)	> 100 µM (inactive)	> 100 µM (inactive)
CCOC(=O)CCC1(CCC(=O)OCC)CCCCCCCCC(CCC(=O)OCC)(CCC(=O)OCC)C(=O)C1=O	> 100 µM (inactive)	> 100 µM (inactive)	> 100 µM (inactive)	> 100 µM (inactive)	> 100 µM (inactive)		> 100 µM (inactive)		> 100 µM (inactive)	> 100 µM (inactive)	79.1 µM (inactive)	> 100 µM (inactive)	> 100 µM (inactive)	> 100 µM (inactive)		> 100 µM (inactive)	> 100 µM (inactive)	> 100 µM (inactive)	> 100 µM (inactive)	
COc1ccc(-n2cnc3c(NCC(=O)O)ncnc32)cc1	> 100 µM (inactive)	> 100 µM (inactive)	> 100 µM (inactive)	> 100 µM (inactive)	> 100 µM (inactive)	> 100 µM (inactive)	> 100 µM (inactive)	> 100 µM (inactive)	> 100 µM (inactive)	> 100 µM (inactive)	> 100 µM (inactive)	> 100 µM (inactive)	> 100 µM (inactive)	> 100 µM (inactive)	48.5 µM (inactive)	> 100 µM (inactive)	> 100 µM (inactive)	> 100 µM (inactive)	> 100 µM (inactive)	
COC(=O)NC(Nc1ccc(C)cc1)(C(F)(F)F)C(F)(F)F	> 100 µM (inactive)	> 100 µM (inactive)	> 100 µM (inactive)	> 100 µM (inactive)	> 100 µM (inactive)	18.3 µM (inactive)	61.2 µM (inactive)	> 100 µM (inactive)	> 100 µM (inactive)	> 100 µM (inactive)	> 100 µM (inactive)	> 100 µM (inactive)	> 100 µM (inactive)	> 100 µM (inactive)	> 100 µM (inactive)	> 100 µM (inactive)	> 100 µM (inactive)	> 100 µM (inactive)		> 100 µM (inactive)
Cc1ccnc2nc3[nH]c4ccccc4c3cc12	> 100 µM (inactive)	> 100 µM (inactive)	> 100 µM (inactive)	> 100 µM (inactive)	> 100 µM (inactive)	> 100 µM (inactive)	71.1 µM (inactive)	> 100 µM (inactive)	> 100 µM (inactive)	> 100 µM (inactive)	> 100 µM (inactive)	> 100 µM (inactive)	> 100 µM (inactive)	> 100 µM (inactive)	75 µM (inactive)	> 100 µM (inactive)	> 100 µM (inactive)	> 100 µM (inactive)	> 100 µM (inactive)	
CC(C)(C)c1cc(C(O)(C(=O)O)C(=O)O)cc(C(C)(C)C)c1O	> 100 µM (inactive)	> 100 µM (inactive)	> 100 µM (inactive)	> 100 µM (inactive)	> 100 µM (inactive)	> 100 µM (inactive)	> 100 µM (inactive)	> 100 µM (inactive)	> 100 µM (inactive)	> 100 µM (inactive)	> 100 µM (inactive)	> 100 µM (inactive)	> 100 µM (inactive)	> 100 µM (inactive)	> 100 µM (inactive)		> 100 µM (inactive)	> 100 µM (inactive)	> 100 µM (inactive)	> 100 µM (inactive)
CC1(C)C/N=C/C(C)(OCc2ccccc2)C(=O)NC(C)(C)C/N=C/C(C)(OCc2ccccc2)C(=O)N1 (stereo not drawn)	> 10 µM (inactive)	> 10 µM (inactive)		> 10 µM (inactive)	> 10 µM (inactive)	> 10 µM (inactive)	> 10 µM (inactive)	> 10 µM (inactive)	> 10 µM (inactive)	> 10 µM (inactive)	> 10 µM (inactive)	> 10 µM (inactive)	> 10 µM (inactive)	> 10 µM (inactive)	> 10 µM (inactive)	> 10 µM (inactive)	> 10 µM (inactive)	> 10 µM (inactive)		> 10 µM (inactive)
CCN(CC)CCC1(C(=O)OC)SCCc2ccc(C)cc21 (stereo not drawn)	> 100 µM (inactive)		> 100 µM (inactive)	> 100 µM (inactive)	> 100 µM (inactive)	> 100 µM (inactive)	> 100 µM (inactive)	> 100 µM (inactive)	> 100 µM (inactive)	> 100 µM (inactive)	> 100 µM (inactive)	> 100 µM (inactive)	> 100 µM (inactive)	> 100 µM (inactive)	> 100 µM (inactive)	> 100 µM (inactive)	> 100 µM (inactive)	> 100 µM (inactive)	> 100 µM (inactive)	
CC(C)=C[C@@H]1C[C@H](n2cc(C)c(=O)[nH]c2=O)ON1CCO	> 100 µM (inactive)	> 100 µM (inactive)	> 100 µM (inactive)	> 100 µM (inactive)	> 100 µM (inactive)	> 100 µM (inactive)	> 100 µM (inactive)	> 100 µM (inactive)	> 100 µM (inactive)	> 100 µM (inactive)	> 100 µM (inactive)	> 100 µM (inactive)	> 100 µM (inactive)	> 100 µM (inactive)	> 100 µM (inactive)		> 100 µM (inactive)	> 100 µM (inactive)	> 100 µM (inactive)	3.08 µM (inactive)
S=C1N(/N=C/c2c3ccccc3cc3ccccc23)C(=N\c2ccccc2)/C(=N/c2ccccc2)N1c1ccccc1	> 100 µM (inactive)	> 100 µM (inactive)	> 100 µM (inactive)	> 100 µM (inactive)	> 100 µM (inactive)	> 100 µM (inactive)	> 100 µM (inactive)	> 100 µM (inactive)	> 100 µM (inactive)	> 100 µM (inactive)	> 100 µM (inactive)	> 100 µM (inactive)	> 100 µM (inactive)	> 100 µM (inactive)		> 100 µM (inactive)		> 100 µM (inactive)		
C/C(=N\Nc1nc2ccccc2o1)c1cccc[n+]1[O-]	> 100 µM (inactive)	5.13 µM (inactive)	2.69 µM (inactive)	3.52 µM (inactive)	5.98 µM (inactive)	4.45 µM (inactive)	6.19 µM (inactive)	12 µM (inactive)	18.6 µM (inactive)	19.1 µM (inactive)	2.89 µM (inactive)	45.7 µM (inactive)	0.0877 µM (active)	11 µM (inactive)	4.3 µM (inactive)	0.0769 µM (active)	13.4 µM (inactive)	46.1 µM (inactive)	5.45 µM (inactive)	
